From PubChem BioAssay (NCI)
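1) Cells in 96-well plates. 2) Compound, 48 h, 5 concentrations. 3) Linear interpolation between surrounding doses. 4) Unreached endpoint = highest concentration. TGI marks complete inhibition of growth.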

Key:
Test in all cases: DTP human tumour cell line panel, 48 h
HCT-116 colon = tested on: HCT-116 colon
RXF 393 renal = tested on: RXF 393 renal
786-0 renal = tested on: 786-0 renal
COLO 205 colon = tested on: COLO 205 colon
OVCAR-5 ovarian = tested on: OVCAR-5 ovarian
HCT-15 colon = tested on: HCT-15 colon
NCI-H460 lung = tested on: NCI-H460 lung
SR leukemia = tested on: SR leukemia
OVCAR-4 ovarian = tested on: OVCAR-4 ovarian
NCI-H226 lung = tested on: NCI-H226 lung
KM12 colon = tested on: KM12 colon
ACHN renal = tested on: ACHN renal
EKVX NSCLC = tested on: EKVX NSCLC
M14 melanoma = tested on: M14 melanoma
SK-MEL-28 melanoma = tested on: SK-MEL-28 melanoma
HL-60(TB) leukemia = tested on: HL-60(TB) leukemia
MOLT-4 leukemia = tested on: MOLT-4 leukemia
UACC-257 melanoma = tested on: UACC-257 melanoma
OVCAR-8 ovarian = tested on: OVCAR-8 ovarian
CCRF-CEM leukemia = tested on: CCRF-CEM leukemia
RPMI-8226 leukemia = tested on: RPMI-8226 leukemia
SNB-19 CNS = tested on: SNB-19 CNS
UO-31 renal = tested on: UO-31 renal
LXFL 529 NSCLC = tested on: LXFL 529 NSCLC
SW-620 colon = tested on: SW-620 colon
CAKI-1 renal = tested on: CAKI-1 renal
SF-268 CNS = tested on: SF-268 CNS
SNB-78 CNS = tested on: SNB-78 CNS
A549 NSCLC = tested on: A549 NSCLC
IGROV1 ovarian = tested on: IGROV1 ovarian
OVCAR-3 ovarian = tested on: OVCAR-3 ovarian
HT29 colon = tested on: HT29 colon
NCI-H23 lung = tested on: NCI-H23 lung
LOX IMVI melanoma = tested on: LOX IMVI melanoma
SF-295 CNS = tested on: SF-295 CNS
SNB-75 CNS = tested on: SNB-75 CNS
K-562 leukemia = tested on: K-562 leukemia
MALME-3M melanoma = tested on: MALME-3M melanoma
DMS 114 small cell lung = tested on: DMS 114 small cell lung
A498 renal = tested on: A498 renal
HOP-62 NSCLC = tested on: HOP-62 NSCLC
SK-OV-3 ovarian = tested on: SK-OV-3 ovarian
U251 CNS = tested on: U251 CNS
TK-10 renal = tested on: TK-10 renal
HCC-2998 colon = tested on: HCC-2998 colon
KM20L2 colon = tested on: KM20L2 colon
XF 498 CNS = tested on: XF 498 CNS
UACC-62 melanoma = tested on: UACC-62 melanoma
DLD-1 colon = tested on: DLD-1 colon
HOP-92 NSCLC = tested on: HOP-92 NSCLC
HOP-18 NSCLC = tested on: HOP-18 NSCLC
M19-MEL melanoma = tested on: M19-MEL melanoma
SK-MEL-5 melanoma = tested on: SK-MEL-5 melanoma
SK-MEL-2 melanoma = tested on: SK-MEL-2 melanoma
NCI-H522 lung = tested on: NCI-H522 lung
SN12C renal = tested on: SN12C renal
SF-539 CNS = tested on: SF-539 CNS
DMS 273 small cell lung = tested on: DMS 273 small cell lung

OCCCNc1ccnc2cc(Cl)ccc12
TGI (HCT-116 colon): > 100 µM
TGI (RXF 393 renal): > 100 µM
TGI (786-0 renal): > 100 µM
TGI (COLO 205 colon): > 100 µM
TGI (OVCAR-5 ovarian): > 100 µM
TGI (HCT-15 colon): > 100 µM
TGI (NCI-H460 lung): > 100 µM
TGI (SR leukemia): > 100 µM
TGI (OVCAR-4 ovarian): > 100 µM
TGI (NCI-H226 lung): > 100 µM
TGI (KM12 colon): > 100 µM
TGI (ACHN renal): > 100 µM
TGI (EKVX NSCLC): > 100 µM
TGI (M14 melanoma): > 100 µM
TGI (SK-MEL-28 melanoma): > 100 µM
TGI (HL-60(TB) leukemia): > 100 µM
TGI (MOLT-4 leukemia): > 100 µM
TGI (UACC-257 melanoma): > 100 µM
TGI (OVCAR-8 ovarian): > 100 µM
TGI (CCRF-CEM leukemia): > 100 µM
TGI (RPMI-8226 leukemia): > 100 µM
TGI (SNB-19 CNS): > 100 µM
TGI (UO-31 renal): > 100 µM
TGI (LXFL 529 NSCLC): > 100 µM
TGI (SW-620 colon): > 100 µM
TGI (CAKI-1 renal): > 100 µM
TGI (SF-268 CNS): > 100 µM
TGI (SNB-78 CNS): > 100 µM
TGI (A549 NSCLC): > 100 µM
TGI (IGROV1 ovarian): > 100 µM
TGI (OVCAR-3 ovarian): > 100 µM
TGI (HT29 colon): > 100 µM
TGI (NCI-H23 lung): > 100 µM
TGI (LOX IMVI melanoma): > 100 µM
TGI (SF-295 CNS): > 100 µM
TGI (SNB-75 CNS): > 100 µM
TGI (K-562 leukemia): > 100 µM
TGI (MALME-3M melanoma): > 100 µM
TGI (DMS 114 small cell lung): > 100 µM
TGI (A498 renal): > 100 µM
TGI (HOP-62 NSCLC): > 100 µM
TGI (SK-OV-3 ovarian): > 100 µM
TGI (U251 CNS): > 100 µM
TGI (TK-10 renal): > 100 µM
TGI (HCC-2998 colon): > 100 µM
TGI (KM20L2 colon): > 100 µM
TGI (XF 498 CNS): > 100 µM
TGI (UACC-62 melanoma): > 100 µM
TGI (DLD-1 colon): > 100 µM
TGI (HOP-92 NSCLC): > 100 µM
TGI (HOP-18 NSCLC): > 100 µM
TGI (M19-MEL melanoma): > 100 µM
TGI (SK-MEL-5 melanoma): > 100 µM
TGI (SK-MEL-2 melanoma): > 100 µM
TGI (NCI-H522 lung): > 100 µM
TGI (SN12C renal): > 100 µM
TGI (SF-539 CNS): > 100 µM

Nc1nc(N)c(-c2ccccc2)c(C(=O)Nc2ccccc2)n1
TGI (HCT-116 colon): > 100 µM
TGI (RXF 393 renal): > 100 µM
TGI (786-0 renal): > 100 µM
TGI (COLO 205 colon): > 100 µM
TGI (OVCAR-5 ovarian): > 100 µM
TGI (HCT-15 colon): > 100 µM
TGI (NCI-H460 lung): > 100 µM
TGI (OVCAR-4 ovarian): > 100 µM
TGI (NCI-H226 lung): > 100 µM
TGI (KM12 colon): > 100 µM
TGI (ACHN renal): > 100 µM
TGI (EKVX NSCLC): > 100 µM
TGI (M14 melanoma): > 100 µM
TGI (SK-MEL-28 melanoma): > 100 µM
TGI (MOLT-4 leukemia): > 100 µM
TGI (UACC-257 melanoma): > 100 µM
TGI (OVCAR-8 ovarian): > 100 µM
TGI (CCRF-CEM leukemia): > 100 µM
TGI (RPMI-8226 leukemia): > 100 µM
TGI (SNB-19 CNS): > 100 µM
TGI (UO-31 renal): > 100 µM
TGI (SW-620 colon): > 100 µM
TGI (CAKI-1 renal): > 100 µM
TGI (SF-268 CNS): > 100 µM
TGI (SNB-78 CNS): > 100 µM
TGI (A549 NSCLC): > 100 µM
TGI (IGROV1 ovarian): > 100 µM
TGI (OVCAR-3 ovarian): > 100 µM
TGI (HT29 colon): > 100 µM
TGI (NCI-H23 lung): > 100 µM
TGI (LOX IMVI melanoma): > 100 µM
TGI (SNB-75 CNS): > 100 µM
TGI (K-562 leukemia): > 100 µM
TGI (MALME-3M melanoma): > 100 µM
TGI (A498 renal): > 100 µM
TGI (SK-OV-3 ovarian): > 100 µM
TGI (U251 CNS): > 100 µM
TGI (TK-10 renal): > 100 µM
TGI (KM20L2 colon): > 100 µM
TGI (XF 498 CNS): > 100 µM
TGI (UACC-62 melanoma): > 100 µM
TGI (DLD-1 colon): > 100 µM
TGI (HOP-92 NSCLC): > 100 µM
TGI (HOP-18 NSCLC): > 100 µM
TGI (M19-MEL melanoma): > 100 µM
TGI (SK-MEL-5 melanoma): > 100 µM
TGI (SK-MEL-2 melanoma): > 100 µM
TGI (NCI-H522 lung): > 100 µM
TGI (SN12C renal): > 100 µM
TGI (SF-539 CNS): > 100 µM

O=C1[C@@H]2C(c3ccccc3[N+](=O)[O-])=[N+](c3ccccc3)O[C@@H]2C(=O)N1c1ccc(Cc2ccc(N3C(=O)[C@H]4C(c5ccccc5[N+](=O)[O-])=[N+](c5ccccc5)O[C@H]4C3=O)cc2)cc1
TGI (HCT-116 colon): > 100 µM
TGI (RXF 393 renal): > 100 µM
TGI (786-0 renal): > 100 µM
TGI (COLO 205 colon): > 100 µM
TGI (OVCAR-5 ovarian): > 100 µM
TGI (HCT-15 colon): > 100 µM
TGI (NCI-H460 lung): > 100 µM
TGI (SR leukemia): > 100 µM
TGI (OVCAR-4 ovarian): > 100 µM
TGI (NCI-H226 lung): > 100 µM
TGI (KM12 colon): > 100 µM
TGI (ACHN renal): > 100 µM
TGI (EKVX NSCLC): > 100 µM
TGI (M14 melanoma): 49.9 µM
TGI (SK-MEL-28 melanoma): > 100 µM
TGI (HL-60(TB) leukemia): > 100 µM
TGI (MOLT-4 leukemia): > 100 µM
TGI (UACC-257 melanoma): > 100 µM
TGI (OVCAR-8 ovarian): > 100 µM
TGI (CCRF-CEM leukemia): > 100 µM
TGI (RPMI-8226 leukemia): > 100 µM
TGI (SNB-19 CNS): > 100 µM
TGI (UO-31 renal): > 100 µM
TGI (LXFL 529 NSCLC): > 100 µM
TGI (SW-620 colon): > 100 µM
TGI (CAKI-1 renal): > 100 µM
TGI (SF-268 CNS): > 100 µM
TGI (SNB-78 CNS): > 100 µM
TGI (A549 NSCLC): > 100 µM
TGI (IGROV1 ovarian): > 100 µM
TGI (OVCAR-3 ovarian): > 100 µM
TGI (HT29 colon): > 100 µM
TGI (NCI-H23 lung): > 100 µM
TGI (LOX IMVI melanoma): > 100 µM
TGI (SF-295 CNS): > 100 µM
TGI (SNB-75 CNS): > 100 µM
TGI (K-562 leukemia): > 100 µM
TGI (MALME-3M melanoma): 81.6 µM
TGI (DMS 114 small cell lung): > 100 µM
TGI (A498 renal): > 100 µM
TGI (HOP-62 NSCLC): > 100 µM
TGI (SK-OV-3 ovarian): > 100 µM
TGI (U251 CNS): > 100 µM
TGI (TK-10 renal): > 100 µM
TGI (HCC-2998 colon): > 100 µM
TGI (KM20L2 colon): > 100 µM
TGI (UACC-62 melanoma): > 100 µM
TGI (DLD-1 colon): > 100 µM
TGI (HOP-92 NSCLC): > 100 µM
TGI (DMS 273 small cell lung): > 100 µM
TGI (HOP-18 NSCLC): > 100 µM
TGI (M19-MEL melanoma): > 100 µM
TGI (SK-MEL-5 melanoma): > 100 µM
TGI (SK-MEL-2 melanoma): > 100 µM
TGI (NCI-H522 lung): > 100 µM
TGI (SN12C renal): > 100 µM
TGI (SF-539 CNS): > 100 µM

COc1cc(C2c3cc4c(cc3[C@H](NS(C)(=O)=O)C3COC(=O)[C@H]23)OCO4)cc(OC)c1OC (stereo partly specified)
TGI (786-0 renal): > 100 µM
TGI (COLO 205 colon): 0.436 µM
TGI (OVCAR-5 ovarian): > 100 µM
TGI (HCT-15 colon): > 100 µM
TGI (NCI-H460 lung): > 100 µM
TGI (SR leukemia): > 100 µM
TGI (NCI-H226 lung): 0.625 µM
TGI (KM12 colon): > 100 µM
TGI (ACHN renal): > 100 µM
TGI (M14 melanoma): > 100 µM
TGI (HL-60(TB) leukemia): 0.883 µM
TGI (MOLT-4 leukemia): 18.5 µM
TGI (UACC-257 melanoma): > 100 µM
TGI (OVCAR-8 ovarian): > 100 µM
TGI (CCRF-CEM leukemia): > 100 µM
TGI (RPMI-8226 leukemia): 46.3 µM
TGI (UO-31 renal): > 100 µM
TGI (LXFL 529 NSCLC): > 100 µM
TGI (SF-268 CNS): > 100 µM
TGI (HT29 colon): > 100 µM
TGI (LOX IMVI melanoma): > 100 µM
TGI (K-562 leukemia): > 100 µM
TGI (MALME-3M melanoma): > 100 µM
TGI (TK-10 renal): > 100 µM
TGI (HCC-2998 colon): > 100 µM
TGI (XF 498 CNS): > 100 µM
TGI (UACC-62 melanoma): > 100 µM
TGI (DLD-1 colon): > 100 µM
TGI (DMS 273 small cell lung): > 100 µM
TGI (HOP-18 NSCLC): > 100 µM
TGI (SK-MEL-2 melanoma): > 100 µM
TGI (SN12C renal): > 100 µM
